15 molecules from US10508104B2, “6-hydroxy-5-(phenyl/heteroarylsulfonyl)pyrimidin-4(1H)-one as APJ agonists” (Bristol-Myers Squibb Company, priority 2016, dated 2019) can be followed below.

Chain of human APJ receptor (P35414 whole entry): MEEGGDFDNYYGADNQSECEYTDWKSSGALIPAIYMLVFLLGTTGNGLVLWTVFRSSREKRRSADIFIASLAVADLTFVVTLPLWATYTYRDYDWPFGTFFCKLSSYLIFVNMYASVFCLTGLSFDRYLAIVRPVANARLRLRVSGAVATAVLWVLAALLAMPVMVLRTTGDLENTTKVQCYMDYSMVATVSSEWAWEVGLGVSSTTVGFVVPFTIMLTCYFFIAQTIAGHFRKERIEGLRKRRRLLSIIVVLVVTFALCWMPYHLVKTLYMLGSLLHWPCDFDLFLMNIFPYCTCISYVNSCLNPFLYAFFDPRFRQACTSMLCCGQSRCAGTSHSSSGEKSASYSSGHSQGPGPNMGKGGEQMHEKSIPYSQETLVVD

The first assay has as its target human APJ receptor (Homo sapiens (Human), UniProt P35414). In words: Intracellular cAMP accumulation assay (APJ hcAMP, HTRF). Format: cell-based. The following applies: HEK293 cells stably expressing human APJ receptor; inhibition of forskolin-mediated cAMP production; read-out: Human APJ cAMP EC50 Potency range. The protocol: Intracellular cAMP Accumulation Assay
HEK293 cells stably expressing human APJ receptor were used to assess the activity of compounds. Cultured cells were detached and resuspended in the cAMP Homogeneous Time-Resolved Fluorescence (HTRF) assay buffer (Cisbio cat; #62AM4PEJ). The assay was performed in 384-well assay plates (Perkin-Elmer; cat #6008289) according to assay protocol provided by the manufacturer. Serial dilutions of a compound together with assay buffer containing […] and 2 μM forskolin were added to each well containing 5,000 cells and incubated for 30 minutes at room temperature. Subsequently, cAMP D2 reagent was added in the lysis buffer followed by the EuK antibody (Cisbio; cat #62AM4PEJ) and incubated for 60 min. The fluorescence emission ratio was measured using fluorometer. The intracellular cAMP concentrations (compound-stimulated inhibition of forskolin-mediated cAMP production) were calculated by extrapolation from a standard curve using known cAMP concentrations. The EC50 values were obtained by fitting the data to a sigmoidal concentration-response curve with variable slope.
The EC50 value of each compound is presented at the end of the example description.
The biological activity of the exemplified compounds of this invention determined by the assay described above is shown at the end of each example.
One may read the EC50 as the concentration at which the effect is half-maximal. Turning to `CCCCc1nc(=O)c(S(=O)(=O)c2ccc(Br)cc2)c(O)n1-c1c(OC)cccc1OC` [Example 1, 5-((4-Bromophenyl)sulfonyl)-2-butyl-1-(2,6-dimethoxyphenyl)-6-hydroxypyrimidin-4(1H)-one], the EC50 lay in the range of 0.01 to 10 nM.

The assay is the same for the next values; noted with them: human APJ, cAMP accumulation; read-out: Human APJ cAMP EC50 Potency range.
Consider `COC[C@@H](c1ccccc1)n1c(C2CCCO2)nc(=O)c(S(=O)(=O)c2ccc(-c3ccnc(F)c3C)cc2)c1O` (mixture of isomers) [Example 353, 5-[4-(2-fluoro-3-methylpyridin-4-yl)benzenesulfonyl]-6-hydroxy-1-[(1R)-2-methoxy-1-phenylethyl]-2-(oxolan-2-yl)-1,4-dihydropyrimidin-4-one], for which the half-maximal effective concentration (EC50) is 0.01 to 10 nM.

On to `COC[C@@H](c1ccccc1)n1c(C2CCCO2)nc(=O)c(S(=O)(=O)c2ccc(-c3ccc(F)nc3)cc2)c1O` (mixture of isomers) [Example 354, 5-[4-(6-fluoropyridin-3-yl)benzenesulfonyl]-6-hydroxy-1-[(1R)-2-methoxy-1-phenylethyl]-2-(oxolan-2-yl)-1,4-dihydropyrimidin-4-one], for which the 50% effective concentration (EC50) was in the range of 0.01 to 10 nM.

Regarding `COC[C@@H](c1ccccc1)n1c(C2CCCO2)nc(=O)c(S(=O)(=O)c2ccc(-c3ccc(F)nc3C)cc2)c1O` (mixture of isomers) [Example 355, 5-[4-(6-fluoro-2-methylpyridin-3-yl)benzenesulfonyl]-6-hydroxy-1-[(1R)-2-methoxy-1-phenylethyl]-2-(oxolan-2-yl)-1,4-dihydropyrimidin-4-one], the EC50 was 0.01 to 10 nM.

With `COC[C@@H](c1ccccc1)n1c(C2CCCO2)nc(=O)c(S(=O)(=O)c2ccc(-c3ccncc3C)cc2)c1O` (single isomer, unassigned) [Example 350], the concentration giving a half-maximal response (EC50) fell in the range of 0.01 to 10 nM.

Consider `COC[C@@H](c1ccccc1)n1c(C2CCCO2)nc(=O)c(S(=O)(=O)c2ccc(-c3ccncc3C)cc2)c1O` (single isomer, unassigned) [Example 351], for which the concentration for a half-maximal effect (EC50) lay within 0.01 to 10 nM.

`COC[C@@H](c1ccccc1)n1c(C2CCCO2)nc(=O)c(S(=O)(=O)c2ccc(-c3ccncc3C)cc2)c1O` (single isomer, unassigned) [Example 352]: the 50% effective concentration (EC50) lay within 0.01 to 10 nM.

As to `COC[C@@H](c1ccccc1)n1c(C2CCCO2)nc(=O)c(S(=O)(=O)c2ccc(-c3ccc(F)nc3C)cc2)c1O` (single isomer, unassigned) [Example 356], the concentration giving a half-maximal response (EC50) lay in the range of 0.01 to 10 nM.

`COC[C@@H](c1ccccc1)n1c(C2CCCO2)nc(=O)c(S(=O)(=O)c2ccc(-c3ccc(F)nc3C)cc2)c1O` (single isomer, unassigned) [Example 357]: the concentration giving a half-maximal response (EC50) fell in the range of 0.01 to 10 nM.

As for `COC[C@@H](c1ccccc1)n1c(C2CCCO2)nc(=O)c(S(=O)(=O)c2ccc(-c3ccc(F)nc3)cc2)c1O` (single isomer, unassigned) [Example 358], the 50% effective concentration (EC50) fell in the range of 0.01 to 10 nM.

As to `COC[C@@H](c1ccccc1)n1c(C2CCCO2)nc(=O)c(S(=O)(=O)c2ccc(-c3ccc(F)nc3)cc2)c1O` (single isomer, unassigned) [Example 359], the half-maximal effective concentration (EC50) was in the range of 0.01 to 10 nM.

Still in this assay, the particulars now being: human APJ, intracellular cAMP accumulation; read-out: Human APJ cAMP EC50 Potency range.
As to “5-(4- bromobenzenesulfonyl)- 2-butyl-3- [cyclopropyl(phenyl) methyl]-6-hydroxy-3,4- dihydropyrimidin-4-one [Example 186]”, the EC50 was 10 to 100 nM.

Take “5-(4- bromobenzenesulfonyl)- 2-butyl-3-[(1S)-1-(3- chlorophenyl)propyl]-6- hydroxy-3,4- dihydropyrimidin-4-one [Example 188]”: the concentration giving a half-maximal response (EC50) is 10 to 100 nM.

`CCCCc1nc(=O)c(S(=O)(=O)c2ccccc2)c(O)n1-c1c(OC)cccc1OC` [Example 2, 5-(benzenesulfonyl)-2-butyl-1-(2,6-dimethoxyphenyl)-6-hydroxy-1,4-dihydropyrimidin-4-one]: the EC50 was in the range of 0.01 to 10 nM.

Consider `CCCCc1nc(=O)c(S(=O)(=O)c2ccc(Cl)cc2)c(O)n1-c1c(OC)cccc1OC` [Example 3, 2-butyl-5-(4-chlorobenzenesulfonyl)-1-(2,6-dimethoxyphenyl)-6-hydroxy-1,4-dihydropyrimidin-4-one], for which the EC50 fell in the range of 0.01 to 10 nM.
